Reference: patent US20260306459A1, “INHIBITORS OF NSUN1- AND NSUN2-MEDIATED ACTIVE STRUCTURES” (THE UNIVERSITY OF CHICAGO, priority 2023, published 2026)
“Also recorded” adds a separate entry of the source.

Columns and labels:
[1] = tested on: eRNAPII (CTD-S2P)-NSUN1 interaction; settings: Cheng 2018; cited from earlier work
[2] = tested on: eRNAPII (CTD-S2P)-NSUN3 interaction; settings: Cheng 2018; cited from earlier work
[3] = tested on: eRNAPII (CTD-S2P)-DNMT2 interaction; settings: Cheng 2018; cited from earlier work
[4] = tested on: SCAR cells; settings: low concentrations of 5-AZA, NSUN1 siRNA; Cheng 2018; cited from earlier work
[5] = tested on: eRNAPII (CTD-S2P)-CTD-S5P interaction; settings: Cheng 2018; cited from earlier work
[6] = tested on: BRD4-eRNAPII (CTD-S2P) interaction; settings: azacitidine-resistant M2AR cells; Cheng 2018; cited from earlier work
[7] = tested on: BRD4-NSUN1 interaction; settings: azacitidine-resistant M2AR cells; Cheng 2018; cited from earlier work
[8] = tested on: SC cells; assay: MTT growth inhibition in venetoclax-resistant monocytic leukemia cell line SC; format: cell-based, human
Text: (§1) FIGS. 8A-8B display a schematic of an 5-ethynyl uridine click chemistry (EC)-coupled flow cytometry (EC-FCM) assay (FIG. 8A), while FIG. 8B depicts the results of an EC-FCM assay showing distinct drug-specific signatures/patterns of nascent RNA synthesis inhibition in the venetoclax sensitive leukemia cell line (K1). The MTT assay measures cell viability and proliferation as well as cytotoxicity of compounds by assessing cellular metabolic activity. The associated measurement can be described as cell viability, cell killing, and/or growth inhibition.
(§2) FIGS. 11A-11D display scatter plot representations of screening results for AI-designed NSUN1-targeting compound libraries in a venetcoclax-resistant human myeloid leukemia cell line (SC), lung cancer cell line (H82), and venetoclax resistant human […], and a schematic representation of categorization of the results. A human myeloid leukemia cell Line (SC), a lung cancer cell line (H82 or K562) were both incubated at drug concentration 10 μM/μL overnight. MTT assays were performed after 24 hours, and changes were calculated as the percentage of mean absorbance (n=3) versus mean absorbance of drug-free control (n=3). Negative outliers indicated in red ovals. FIG. 11A depicts the results of an NSUN1-targeting drug library, 74 drugs, comparing growth/inhibition in H-82 (Y axis) and SC (X axis) cell lines. FIG. 11B depicts the results of an NSUN2-targeting drug library, 102 drugs, comparing growth/inhibition in H-82 (Y axis) and SC (X axis) cell lines. FIG. 11C depicts the results of an NSUN1-targeting drug library, 74 drugs, comparing growth/inhibition in K562 (Y axis) and SC (X axis) cell lines. FIG. 11D is a schematic representation showing categorization of the results from screens performed as described in FIG. 11, and validation experiments as described in FIG. 12.
(§3) FIGS. 12A-12J display bar graphs displaying the results of validation experiments for small molecule inhibitors of NSUN1/2-ACS interactions as identified herein. Drug validation of select SC, H82, and/or K562 inhibiting compounds in mouse acute myeloid leukemia cell Line (C1498), SC cells, H82 cells, and/or K562 cells. NSUN1-17 and/or venetoclax acted as controls. Inhibition of cell vitality was identified as dose-dependent for certain small molecules, not merely cytotoxic. In brief, stock with concentration 0.4×10^6 test (e.g., SC, H82, K562, or C1498, as labelled) cells/mL, and 10 μM/μL drug was serially diluted into drug-free cell stock to reach concentrations of 1 μM/μL and […] and split into 100 μL volumes in a 96-well plate. MTT assays performed after 24 hour incubation. Percentages calculated as a difference in mean absorbance of each drug triplicate and mean absorbance in drug-free cell triplicate. Red bars represent standard errors. The concentration of drug represented by each column is from left to right as written in the figure keys. FIGS. 12A-12E provide results from independent repeats for different groupings of small molecules tested against C1498 cells. FIGS. 12F-12G provide results from independent repeats for different groupings of small molecules tested against H82 cells. FIGS. […] provide results from independent repeats for different groupings of small molecules tested against SC cells. FIG. 12J provide results from an assay against K562 cells.
The inventors then designed a protocol for functional screening of NSUN1/2-targeting supercomputing/AI-derived compound libraries as schematically presented in FIGS. 5A-5G. Briefly, the library compounds were obtained from various chemical companies/vendors and dissolved in DMSO, and then applied to 96-well plates that contained leukemia and/or other cancer cells that were resistant to venetoclax. […]

[9] = tested on: leukemia and lung cancer cell lines; assay: Functional (MTT) screening of NSUN1/2-targeting libraries in leukemia and lung cancer cell lines; format: cell-based, human; settings: multiple leukemia lines and/or lung cancer cell lines
Method: as §2, §3
The inventors then designed a protocol for functional screening of NSUN1/2-targeting supercomputing/AI-derived compound libraries as schematically presented in FIGS. 5A-5G. Briefly, the library compounds were obtained from various chemical companies/vendors and dissolved in DMSO, and then applied to 96-well plates that contained leukemia and/or other cancer cells that were resistant to venetoclax. Both the routine colorimetric assay (MTT assay) and the newly developed NSUN1/2-targeting fluorescence quenching and release (FQR) assay were performed to select bioactive compounds for further quantitative study to confirm that they targetNSUN1/2 and their associated ACS. As described below, the compound libraries screened through cancer cell proliferation and/or NSUN1/2 localization to the ACS successfully identified numerous promising compounds that can inhibit the leukemia cell growth and appear to target the NSUN1-mediated ACS (see Table 2). This success has proven the feasibility and efficacy of the described supercomputing/AI design and functional screening of the NSUN1/2-targeting drug libraries. In some aspects, screening is conducted using drug-resistant cell lines. […]

[10] = biological target: T1, NSUN1-eRNAPII interaction (Homo sapiens, UniProt P46087); assay: PL-RCA-FCM, NSUN1-eRNAPII interaction; format: cell-based
T1 construct: RNAPII
Text: (§4) FIGS. 5A-5G display a pipeline of computational design and functional screening of small-molecule compound libraries as well as exemplary characterization and validation of identified positive hit compounds and their targets. FIGS. 5A-5D display an exemplary experimental procedure, beginning with characterization of NSUN1 and/or NSUN2 putative binding modules for interaction with ACS components (FIGS. 5A-5B), a graphic displaying the design of a small molecule library and testing of the putative small molecule NSUN1/2-ACS inhibitors in cell lines (FIG. 5C), characterization of the NSUN1/2-ACS inhibitors interactions with the ACS machinery (FIG. 5D).
(§5) Black=negative control, blue=positive control, no drug=red.
(§6) The PL-RCA-CM/imaging technique utilized in the inventors previous work (Cheng, J. X. et al., Nature Communications 2018) was suitable to visualize and semi-quantify the NSUN1/2-mediated ACS in cells. […] To overcome this bottleneck, as described herein, the inventors developed NSUN1/2-targeting fluorescence quenching and release (FQR) plate assay (FIG. 6A) and PL-RCA flow cytometry (PL-RCA-FCM) technology (FIG. 6B) for screening of NSUN1/2-targeting drug libraries and quantitatively measuring NSUN1/2-mediated ACS with and without drugs in a lineage-specific and high-throughput manner. […]

[11] = biological target: NSUN1-c-MYC interaction (Homo sapiens, UniProt P46087); assay: PL-RCA-FCM, NSUN1-c-MYC interaction; format: cell-based
Text: as §4, §5, §6

[12] = biological target: NSUN1-RNA:m5C interaction (Homo sapiens, UniProt P46087); assay: PL-RCA-FCM, NSUN1-RNA:m5C interaction; format: cell-based
Text: as §4
The PL-RCA-CM/imaging technique utilized in the inventors previous work (Cheng, J. X. et al., Nature Communications 2018) was suitable to visualize and semi-quantify the NSUN1/2-mediated ACS in cells. However, the previous technique had the disadvantage of having a low sensitivity and low throughput. To overcome this bottleneck, as described herein, the inventors developed NSUN1/2-targeting fluorescence quenching and release (FQR) plate assay (FIG. 6A) and PL-RCA flow cytometry (PL-RCA-FCM) technology (FIG. 6B) for screening of NSUN1/2-targeting drug libraries and quantitatively measuring NSUN1/2-mediated ACS with and without drugs in a lineage-specific and high-throughput manner. […]

[13] = biological target: T2, NSUN2-RNA polymerase II (RNAPII) interaction (Homo sapiens, UniProt Q08J23); assay: PL-RCA-FCM, NSUN2-RNAPII interaction; format: cell-based
T2 construct: RNAPII CTD2-S2P
Text: as §5
The PL-RCA-CM/imaging technique utilized in the inventors previous work (Cheng, J. X. et al., Nature Communications 2018) was suitable to visualize and semi-quantify the NSUN1/2-mediated ACS in cells. However, the previous technique had the disadvantage of having a low sensitivity and low throughput. To overcome this bottleneck, as described herein, the inventors developed NSUN1/2-targeting fluorescence quenching and release (FQR) plate assay (FIG. 6A) and PL-RCA flow cytometry (PL-RCA-FCM) technology (FIG. 6B) for screening of NSUN1/2-targeting drug libraries and quantitatively measuring NSUN1/2-mediated ACS with and without drugs in a lineage-specific and high-throughput manner. The new PL-RCA-FCM detected very strong PL-RCA signals (>2 logs) of the NSUN2-mediated interactions with m5C, RNAPII CTD2-S2P and BRD4, particularly in the venetoclax-resistant leukemia cells (SC) (FIG. 6C), in comparison to the venetoclax-sensitive K1 cells (FIG. 6D).

[14] = tested on: NSUN1 and NSUN2 binding modules; assay: Synergy experiments; settings: besides the NSUN1 A-460 binding module
Text: Without being limited by theory, this may potentially be why NSUN1-17 is effective in multiple different cancer types.

[15] = tested on: H82 cells; assay: MTT growth inhibition in venetoclax-resistant lung cancer cell line H82; format: cell-based, human; settings: human lung cancer cell line NCI-H82
Text: as §1, §2
FIGS. 12A-12J display bar graphs displaying the results of validation experiments for small molecule inhibitors of NSUN1/2-ACS interactions as identified herein. Drug validation of select SC, H82, and/or K562 inhibiting compounds in mouse acute myeloid leukemia cell Line (C1498), SC cells, H82 cells, and/or K562 cells. NSUN1-17 and/or venetoclax acted as controls. Inhibition of cell vitality was identified as dose-dependent for certain small molecules, not merely cytotoxic. In brief, stock with concentration 0.4×10^6 test (e.g., SC, H82, K562, or C1498, as labelled) cells/mL, and 10 μM/μL drug was serially diluted into drug-free cell stock to reach concentrations of 1 μM/μL and […] and split into 100 μL volumes in a 96-well plate. MTT assays performed after 24 hour incubation. Percentages calculated as a difference in mean absorbance of each drug triplicate and mean absorbance in drug-free cell triplicate. […]

[16] = tested on: C1498 cells; assay: MTT growth inhibition in myeloid leukemia cell line C1498; format: cell-based, mouse; settings: mouse AML cell line
Text: as §1, §3
The inventors then designed a protocol for functional screening of NSUN1/2-targeting supercomputing/AI-derived compound libraries as schematically presented in FIGS. 5A-5G. Briefly, the library compounds were obtained from various chemical companies/vendors and dissolved in DMSO, and then applied to 96-well plates that contained leukemia and/or other cancer cells that were resistant to venetoclax. Both the routine colorimetric assay (MTT assay) and the newly developed NSUN1/2-targeting fluorescence quenching and release (FQR) assay were performed to select bioactive compounds for further quantitative study to confirm that they targetNSUN1/2 and their associated ACS. As described below, the compound libraries screened through cancer cell proliferation and/or NSUN1/2 localization to the ACS successfully identified numerous promising compounds that can inhibit the leukemia cell growth and appear to target the NSUN1-mediated ACS (see Table 2). This success has proven the feasibility and efficacy of the described supercomputing/AI design and functional screening of the NSUN1/2-targeting drug libraries. In some aspects, screening is conducted using drug-resistant cell lines. In some aspects, screening is conducted using drug-sensitive cell lines. In some aspects, screening is conducted in leukemia cell lines. In some aspects, screening is conducted in other cancer cell lines besides leukemia (e.g., lung cancer cell lines). In some aspects, NSUN1/2-ACS inhibitors identified are verified in additional cell lines and/or animal models (see e.g., Tables 4-6).

[17] = tested on: Kasumi-1 (K1) cells; assay: Venetoclax sensitivity of Kasumi-1 cells; format: cell-based
[18] = tested on: CCRF-CEM cells; assay: Venetoclax sensitivity of CCRF-CEM cells; format: cell-based
[19] = tested on: K1VR cells; assay: Venetoclax sensitivity of K1VR cells after NSUN1/NSUN2 knockdown; format: cell-based; settings: knockdown of either NSUN1 or NSUN2
[20] = tested on: MDS/AML; settings: cited from earlier work

T1 sequence (P46087 whole entry): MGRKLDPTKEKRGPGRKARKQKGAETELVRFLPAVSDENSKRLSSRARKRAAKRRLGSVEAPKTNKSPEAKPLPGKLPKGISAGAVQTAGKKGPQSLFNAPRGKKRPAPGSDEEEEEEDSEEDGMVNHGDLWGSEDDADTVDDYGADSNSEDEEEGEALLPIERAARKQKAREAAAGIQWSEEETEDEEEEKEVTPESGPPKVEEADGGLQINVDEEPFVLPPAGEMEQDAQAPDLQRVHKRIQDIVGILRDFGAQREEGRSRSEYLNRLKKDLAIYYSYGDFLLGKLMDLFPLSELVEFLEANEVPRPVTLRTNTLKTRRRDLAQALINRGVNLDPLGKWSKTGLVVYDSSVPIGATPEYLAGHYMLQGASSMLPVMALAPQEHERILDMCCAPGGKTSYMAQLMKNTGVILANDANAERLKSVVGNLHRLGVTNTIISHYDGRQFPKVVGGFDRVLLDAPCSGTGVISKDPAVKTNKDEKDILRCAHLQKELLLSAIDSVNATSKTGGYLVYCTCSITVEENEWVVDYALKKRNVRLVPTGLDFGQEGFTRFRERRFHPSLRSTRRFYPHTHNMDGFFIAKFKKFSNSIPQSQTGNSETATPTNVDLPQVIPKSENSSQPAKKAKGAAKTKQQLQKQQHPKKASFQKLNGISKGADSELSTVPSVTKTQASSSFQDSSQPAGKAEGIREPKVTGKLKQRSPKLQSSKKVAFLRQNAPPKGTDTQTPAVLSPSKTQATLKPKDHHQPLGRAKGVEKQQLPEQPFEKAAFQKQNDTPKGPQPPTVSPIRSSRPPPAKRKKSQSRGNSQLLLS
Chain of NSUN1-c-MYC interaction (P46087 whole entry): as above
Chain of NSUN1-RNA:m5C interaction (P46087 whole entry): as above
T2 sequence (Q08J23 whole entry): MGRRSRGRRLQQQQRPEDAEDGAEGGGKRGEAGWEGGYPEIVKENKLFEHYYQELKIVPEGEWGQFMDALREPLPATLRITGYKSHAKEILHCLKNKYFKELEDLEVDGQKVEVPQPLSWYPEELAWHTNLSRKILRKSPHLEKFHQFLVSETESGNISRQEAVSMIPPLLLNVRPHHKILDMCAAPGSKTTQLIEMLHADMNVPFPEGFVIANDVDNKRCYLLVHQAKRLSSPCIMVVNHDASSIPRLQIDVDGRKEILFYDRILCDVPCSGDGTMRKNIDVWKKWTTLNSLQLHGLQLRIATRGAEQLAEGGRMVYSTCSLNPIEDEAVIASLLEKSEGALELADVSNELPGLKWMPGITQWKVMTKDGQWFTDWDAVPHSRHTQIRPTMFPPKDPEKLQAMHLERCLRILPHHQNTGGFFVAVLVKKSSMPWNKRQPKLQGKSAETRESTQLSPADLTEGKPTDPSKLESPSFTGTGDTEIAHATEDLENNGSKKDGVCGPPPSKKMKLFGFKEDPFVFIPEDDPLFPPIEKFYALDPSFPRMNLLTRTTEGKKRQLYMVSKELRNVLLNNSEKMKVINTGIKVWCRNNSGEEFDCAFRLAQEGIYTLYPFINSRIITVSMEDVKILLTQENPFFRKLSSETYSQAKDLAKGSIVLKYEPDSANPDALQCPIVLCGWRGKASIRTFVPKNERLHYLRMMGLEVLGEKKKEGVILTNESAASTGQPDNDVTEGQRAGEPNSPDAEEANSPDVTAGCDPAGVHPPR

Nc1ncn([C@@H]2O[C@H](CO)[C@@H](O)[C@H]2O)c(=O)n1 [5-AZA, 5-azacytidine]
Sensitivity of eRNAPII (CTD-S2P)-NSUN1 interaction [1]: resistant | Sensitivity of eRNAPII (CTD-S2P)-NSUN3 interaction [2]: highly sensitive | Sensitivity of eRNAPII (CTD-S2P)-DNMT2 interaction [3]: highly sensitive | Response of 5-AZA-resistant SCAR cells after NSUN1 knockdown [4]: re-sensitized | Sensitivity of eRNAPII (CTD-S2P)-CTD-S5P interaction [5]: resistant

Cc1sc2c(c1C)C(c1ccc(Cl)cc1)=N[C@@H](CC(=O)OC(C)(C)C)c1nnc(C)n1-2 [JQ1]
Sensitivity of BRD4-eRNAPII (CTD-S2P) interaction [6]: insensitive | Sensitivity of BRD4-NSUN1 interaction [7]: insensitive

Cc1[nH]nc2ccc(-c3cncc(OC[C@@H](N)Cc4c[nH]c5ccccc45)c3)cc12 [NSUN1-17]
Inhibition of growth of venetoclax-resistant leukemia (SC) cells [8]: inhibition of the growth of venetoclax-resistant SC cells; also recorded: inhibit drug (venetoclax)-resistant leukemia cells | Efficacy of tumor cell growth inhibition [9]: high-efficacy of tumor cell growth inhibition | Effect on NSUN1 interaction with eRNAPII/RNAPII [10]: inhibited the interaction; also recorded: can only disrupt the NSUN1-mediated interaction; also recorded: effectively disrupted | Effect on NSUN1 interaction with c-MYC [11]: inhibited the interaction; also recorded: can only disrupt the NSUN1-mediated interaction; also recorded: effectively disrupted | Effect on NSUN1 interaction with RNA:m5C [12]: but not the interaction between NSUN1 and RNA m5C; also recorded: little effects | Effect on NSUN2-mediated interaction with RNA polymerase II [13]: not the NSUN-2 mediated interaction | Binding modules targeted, from synergy experiments [14]: likely to target multiple binding modules in both NSUN1 and NSUN2

CC1(C)CCC(CN2CCN(c3ccc(C(=O)NS(=O)(=O)c4ccc(NCC5CCOCC5)c([N+](=O)[O-])c4)c(Oc4cnc5[nH]ccc5c4)c3)CC2)=C(c2ccc(Cl)cc2)C1 [venetoclax, Venetoclax]
Sensitivity/resistance of SC cells ([8]; monocytic leukemia line SC): highly resistant | Sensitivity/resistance of NCI-H82 cells [15]: resistant | Sensitivity/resistance of C1498 cells [16]: moderate to high resistance | Sensitivity/resistance of Kasumi-1 cells [17]: sensitive | Sensitivity/resistance of CCRF-CEM cells [18]: sensitive | Sensitivity of K1VR cells after NSUN1 or NSUN2 siRNA knockdown [19]: re-sensitize | AML patients developing venetoclax acquired resistance ([20]; AML patients, venetoclax-based therapy, acquired resistance): > 60% | MDS/AML with primary venetoclax resistance ([20]; MDS/AML, primary resistance): 30-40%
